Test results reported in patent US9814761B2, “Compositions, methods and assays comprising amylin or amlyin analogs for abeta-peptide mediated disorders” (TRUSTEES OF BOSTON UNIVERSITY, priority 2012, dated 2017).
“Also recorded” adds a separate entry of the source.

Legend:
[1] = Banks and Kastin, 1998; cited from earlier work
[2] = tested on: serum Aβ1-40 and Aβ1-42; experiment: amylin challenge test: i.p. injection, serum Aβ1-40 and Aβ1-42 by ELISA, Tg2576 mice; format: in vivo; details: 5 minutes
Experimental: (§1) TgAPP2576 mice (n=5) and control mice (n=5) were used. Intraperitoneal injection of amylin (20 mg/kg) was performed, and blood was drawn and collected at pre-injection, after injection at 5 minutes, 1 hr and 24 hrs. Serum Aβ1-40 and Aβ1-42 were measured using ELISA assay. The results of serum Aβ1-40 and Aβ1-42 for each individual mouse are shown. This experiment has been repeated twice for each mouse and similar results were obtained.
(§2) As shown at FIGS. 3A-3E, amylin injection removes Aβ from the brain into blood in APP transgenic mice. Both the Tg2576 and wild type (WT) mice were used for the amylin challenge test. FIGS. 3A-3B. Amylin (20 mg/kg) was intraperitoneally injected (i.p), and blood was drawn and collected at the time points of pre-injection (the control n=7; Tg2576 n=11), after injection 5 minutes (the control n=7; Tg2576 n=6), 1 hr (the control n=7; Tg2576 n=10) and 24 hrs (the control n=7; Tg2576 n=11). Serum Aβ1-40 and Aβ1-42 were measured by using the ELISA assays. FIGS. 3C-3E. The levels of serum Aβ1-40 and Aβ1-42 at pre-injection of amylin were treated as 1 s, and the relative fold increase after amylin injection at each time point was shown and compared with the pre-injection level by using two-way ANOVA. ***p<0.01; **p<0.05 and *p<0.10.
(§3) FIGS. 6A-6D depict amylin injection and serum Aβ in mice. Both control mice (wild type) and Tg2576 mice were used for the amylin injection test. Amylin (20 mcg/kg) was intraperitoneally injected (i.p), and blood was drawn at the following time points: at baseline or pre-injection (controls n=7; Tg2576 n=11), at 5 minutes (controls n=7; Tg2576 n=6), at 1 hr (controls n=7; Tg2576 n=10) and at 24 hrs (controls n=7; Tg2576 n=11) post injection. Serum Aβ1-40 and Aβ1-42 were measured by using the ELISA assays. The levels of serum Aβ1-40 and Aβ1-42 at pre-injection of amylin were treated as 1 s, and the relative fold increase after amylin injection at each time point was shown and compared with the pre-injection level by using a two-way ANOVA. ***p<0.01; **p<0.05 and *p<0.10.
(§4) Validation: We used the APP transgenic mice (Tg2576) to conduct amylin challenge test. Tg2576 mice have Aβ deposits in the brain like the AD pathology. After intraperitoneal injection of amylin (20 mg/kg), Tg2576 mice (n=5) presented with the increase of serum Aβ40 and Aβ42 at 5 minutes, 1 hr and 24 hrs compared to the pre-injection levels of serum Aβ40 and Aβ42.

[3] = tested on: Aβ1-40 and Aβ1-42 in blood; experiment: amylin challenge test, blood Aβ, APP Dutch mutation mouse line; format: in vivo, APP mouse line which carries the APP Dutch mutation
[4] = tested on: Aβ monomers and Aβ oligomers in the brain; experiment: Aβ in the brain after amylin treatment, western blots and ELISA assays; format: in vivo; details: 5XFAD mice; amylin treatment compared to saline
Excerpt: Changes of Aβ in the brain were examined after the amylin treatment in 5XFAD mice using both western blots and ELISA assays. […] Thus, without wishing to be bound or limited by theory, the benefits of memory improvement from amylin treatment is mediated, in part, by 1) removing Aβ from the AD brain into blood and 2) reducing the amount of Aβ oligomers in the brain.

[5] = tested on: mouse models; experiment: daily dosing in mouse models, memory functions; format: in vivo, mice
[6] = tested on: serum Aβ1-40 and Aβ1-42; experiment: amylin challenge test: i.p. injection, serum Aβ1-40 and Aβ1-42 by ELISA, control (wild type) mice; format: in vivo
Experimental: as §1, §2, §3
FIG. 7 depicts results of i.p injection of pramlintide, an analog of amylin, into one Tg2576 mouse (A1) and two wild type mice (N1 and N2) and comparison of their serum Aβ40 level before and after the injection.
as §4

[7] = tested on: 5XFAD mice; experiment: Y Maze Spontaneous Alternation test after long-term amylin treatment; format: in vivo; details: 5XFAD mice aged 2 months; amylin 20 mcg/kg i.p. daily for 10 weeks vs. saline; n=8
Experimental: Since amylin can enhance the removal of Aβ out of the brain into blood, it was tested whether amylin and its analogs can be a treatment for AD. Thus, we treated 5XFAD mice aged 2 months old with i.p injection of amylin (20 mcg/kg) vs. saline (n=8 in each group) daily for 10 weeks, and then conducted Y Maze Spontaneous Alternation test for measuring the willingness of mice to explore new environments.

[8] = tested on: 5XFAD mice; experiment: Y-water Maze test after long-term amylin treatment; format: in vivo
Experimental: 5XFAD mice were treated with either i.p amylin or saline for 8 weeks followed by Y-water maze test. The average latency of recognizing the object after the training was calculated for each group (n=10) and statistical significance for the comparison is shown.

[9] = tested on: serum Aβ1-40 and Aβ1-42; experiment: amylin challenge test, serum Aβ, 5XFAD mice; format: in vivo
Excerpt: The higher the levels of Aβ and the number of amyloid plaques in the brain, the higher fold of serum Aβ was increased after the peripheral amylin challenge.

[10] = Tg2576 mice (n=5), amylin 20 mg/kg intraperitoneal, 1 hr and 24 hrs
[11] = Tg2576 mice, single amylin injection 20 mcg/kg i.p., 1 hr, 24 hrs
[12] = control mice (n=5), amylin 20 mg/kg intraperitoneal
[13] = control mice (wild type), single amylin injection 20 mcg/kg i.p.

Which “passage through the brain blood barrier (BBB) into the brain” value [1] does the source give for “amylin (KCNTATCATQRLANFLVHSSNNFGAILSSTNVGSNTY; listed as Homo sapiens)” here?
Its value is “freely passes through the brain blood barrier (BBB)”.

And the “serum Aβ40 compared to the pre-injection level” value [2, 10]?
Its value is “increase”.

What about the “serum Aβ42 compared to the pre-injection level” value [2, 10] of the same substance?
The value was “increase”.

And the “serum Aβ40 compared to the pre-injection level” value [2, 11]?
The value was “surges”.

And the “serum Aβ42 compared to the pre-injection level” value [2, 11]?
Its value is “surges”.

What about the Aβ1-40 in blood [3] of the same substance?
The Aβ1-40 in blood was “surge”.

And the “amount of Aβ monomers in the brain” value [4]?
The value was “did not change”.

And the “amount of Aβ oligomers in the brain” value [4]?
Its value is “significantly reduced”.

And the “memory functions / cognition” value [5]?
Its value is “increased memory functions”.

What about the “serum Aβ40 compared to the pre-injection level” value [6, 12] of the same substance?
The value was “did not have these surges”.

What about the “serum Aβ42 compared to the pre-injection level” value [6, 12] of the same substance?
The value was “did not have these surges”.

What about the “serum Aβ40 compared to the pre-injection level” value [6, 13] of the same substance?
The value was “none of the control mice (wild type), had surges”.

What about the “serum Aβ42 compared to the pre-injection level” value [6, 13] of the same substance?
Its value is “none of the control mice (wild type), had surges”.

What about the “% alternation rate” value [7] of the same substance?
The value was “significantly increased”.

And the “Y-water maze, average latency of recognizing the object after the training” value ([8]; 5XFAD mice, i.p. amylin or saline for 8 weeks, n=10)?
The value was “improves; also recorded: improved memory impairment”.

What about the “time for acquisition (escaping onto the platform)” value ([8]; APP transgenic mice, long-term amylin treatment vs placebo) of the same substance?
Its value is “significantly reduced”.

What about the “memory retention: time to find the platform” value ([8]; APP transgenic mice, long-term amylin treatment vs placebo, at 30 minutes and at 3 days, p<0.02) of the same substance?
Its value is “shortening the time to find the platform”.

What about the Aβ1-42 in serum ([9]; 5XFAD mice aged 3 months, i.p. injection of amylin) of the same substance?
Its Aβ1-42 in serum is “increased level”.

And the “serum Aβ levels after peripheral amylin injection” value ([9]; different aged 5XFAD mice)?
The value was “increase of serum Aβ levels reflecting the amounts of Aβ in the brains”.
